Test results from ChEMBL document CHEMBL4616689, “PROTAC Compounds Targeting Androgen Receptor for Cancer Therapeutics: Prostate Cancer and Kennedy's Disease” (ACS Med Chem Lett, 2020).

Tests used:
Format in all cases: cell-based
[1] = biological target: T1, von Hippel-Lindau disease tumor suppressor/Androgen receptor (Homo sapiens, UniProt P10275+P40337); experiment: Protac activity at E3 ubiquitin-protein ligase/AR in human LNCAP cells assessed as induction of AR degradation after 24 hrs by ELISA relative to control
Target sequence in this assay (P10275 whole entry, looked up): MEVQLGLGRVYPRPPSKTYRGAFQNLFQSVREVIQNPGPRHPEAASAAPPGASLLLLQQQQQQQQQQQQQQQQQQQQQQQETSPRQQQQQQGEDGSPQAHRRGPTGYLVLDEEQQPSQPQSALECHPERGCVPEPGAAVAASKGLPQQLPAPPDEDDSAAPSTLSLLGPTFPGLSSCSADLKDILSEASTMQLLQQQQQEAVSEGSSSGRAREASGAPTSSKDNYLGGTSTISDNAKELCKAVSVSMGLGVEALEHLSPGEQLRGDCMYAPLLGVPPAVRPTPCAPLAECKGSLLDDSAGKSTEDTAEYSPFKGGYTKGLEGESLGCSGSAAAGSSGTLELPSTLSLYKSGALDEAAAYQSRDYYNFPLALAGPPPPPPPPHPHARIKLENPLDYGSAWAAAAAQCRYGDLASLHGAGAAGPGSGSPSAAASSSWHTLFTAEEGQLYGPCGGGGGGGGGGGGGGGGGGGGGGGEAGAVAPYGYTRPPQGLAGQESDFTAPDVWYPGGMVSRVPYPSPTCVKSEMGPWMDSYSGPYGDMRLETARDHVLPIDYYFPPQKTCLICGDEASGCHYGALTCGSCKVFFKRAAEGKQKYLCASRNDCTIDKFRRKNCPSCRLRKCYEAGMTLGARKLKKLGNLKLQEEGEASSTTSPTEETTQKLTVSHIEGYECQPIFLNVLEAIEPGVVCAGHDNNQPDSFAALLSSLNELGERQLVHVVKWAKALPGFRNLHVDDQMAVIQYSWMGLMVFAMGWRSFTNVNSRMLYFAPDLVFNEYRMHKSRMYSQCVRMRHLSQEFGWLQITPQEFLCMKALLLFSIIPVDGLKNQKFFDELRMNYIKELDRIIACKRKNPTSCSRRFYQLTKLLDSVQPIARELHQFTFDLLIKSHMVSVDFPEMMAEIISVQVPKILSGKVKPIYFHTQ
Target sequence in this assay (P40337 whole entry, looked up): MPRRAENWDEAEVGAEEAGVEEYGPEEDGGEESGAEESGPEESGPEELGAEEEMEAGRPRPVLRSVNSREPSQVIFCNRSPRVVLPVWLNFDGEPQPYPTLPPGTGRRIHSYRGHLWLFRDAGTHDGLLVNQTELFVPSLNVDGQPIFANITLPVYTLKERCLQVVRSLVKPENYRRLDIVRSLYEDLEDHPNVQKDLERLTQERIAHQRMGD

[2] = biological target: T1, von Hippel-Lindau disease tumor suppressor/Androgen receptor; experiment: Protac activity at E3 ubiquitin-protein ligase/AR in human LNCAP cells assessed as induction of AR degradation after 24 hrs by ELISA
Target sequence in this assay (P10275 whole entry): as the sequence (P10275 whole entry, looked up) above
Target sequence in this assay (P40337 whole entry): as the sequence (P40337 whole entry, looked up) above

[3] = biological target: T1, von Hippel-Lindau disease tumor suppressor/Androgen receptor; experiment: Protac activity at E3 ubiquitin-protein ligase/AR in human VCAP cells assessed as induction of AR degradation after 24 hrs by ELISA relative to control
Target sequence in this assay (P10275 whole entry, looked up): as the sequence (P10275 whole entry, looked up) above
Target sequence in this assay (P40337 whole entry, looked up): as the sequence (P40337 whole entry, looked up) above

[4] = biological target: T1, von Hippel-Lindau disease tumor suppressor/Androgen receptor; experiment: Protac activity at E3 ubiquitin-protein ligase/AR in human VCAP cells assessed as induction of AR degradation after 24 hrs by ELISA
Target sequence in this assay (P10275 whole entry): as the sequence (P10275 whole entry, looked up) above
Target sequence in this assay (P40337 whole entry): as the sequence (P40337 whole entry, looked up) above

[5] = biological target: T1, von Hippel-Lindau disease tumor suppressor/Androgen receptor; experiment: Protac activity at E3-ubiquitin ligase/AR in human LNCAP cells assessed as AR degradation up to 15 mins by ELISA relative to control; parameters: concentration or dose not given beside the values
Target sequence in this assay (P10275 whole entry, looked up): as the sequence (P10275 whole entry, looked up) above
Target sequence in this assay (P40337 whole entry, looked up): as the sequence (P40337 whole entry, looked up) above

[6] = biological target: T1, von Hippel-Lindau disease tumor suppressor/Androgen receptor; experiment: Protac activity at E3-ubiquitin ligase/AR in human VCaP cells assessed as AR degradation up to 15 mins by ELISA relative to control; parameters: concentration or dose not given beside the values
Target sequence in this assay (P10275 whole entry, looked up): as the sequence (P10275 whole entry, looked up) above
Target sequence in this assay (P40337 whole entry, looked up): as the sequence (P40337 whole entry, looked up) above

[7] = biological target: T1, von Hippel-Lindau disease tumor suppressor/Androgen receptor; experiment: Protac activity at E3-ubiquitin ligase/AR in human LNCAP cells assessed as time taken for maximum degradation by ELISA
Target sequence in this assay (P10275 whole entry, looked up): as the sequence (P10275 whole entry, looked up) above
Target sequence in this assay (P40337 whole entry, looked up): as the sequence (P40337 whole entry, looked up) above

[8] = biological target: T1, von Hippel-Lindau disease tumor suppressor/Androgen receptor; experiment: Protac activity at E3-ubiquitin ligase/AR in human VCaP cells assessed as time taken for maximal degradation by ELISA
Target sequence in this assay (P10275 whole entry, looked up): as the sequence (P10275 whole entry, looked up) above
Target sequence in this assay (P40337 whole entry, looked up): as the sequence (P40337 whole entry, looked up) above

Cc1ncsc1-c1ccc(CNC(=O)[C@@H]2C[C@@H](O)CN2C(=O)[C@@H](NC(=O)COCCCCOc2ccc(-c3ccc(N4C(=S)N(c5ccc(C#N)c(C(F)(F)F)c5)C(=O)C4(C)C)cc3)cc2)C(C)(C)C)cc1 showed an Emax [1] of over 71%, a DC50 [2] of at most 50 µM and an Emax [3] of over 71%. The DC50 [4] was at most 50 µM, the Activity [5] was 50% and the Activity [6] was 50%. For the same compound, the TIME [7] was 4 h and the TIME [8] was 4 h.
Compound Cc1ncsc1-c1ccc(CNC(=O)[C@@H]2C[C@@H](O)CN2C(=O)[C@@H](NC(=O)COCCCOCCCCCOc2ccc(N3C(=S)N(c4cnc(C#N)c(C(F)(F)F)c4)C(=O)C3(C)C)cc2)C(C)(C)C)cc1 has an Emax [1] of over 71%, a DC50 [2] of at most 50 µM and an Emax [3] of under 70%. It also gave a DC50 [4] of at most 50 µM, an Activity [5] of 50% and an Activity [6] of 50%. It also gave a TIME [7] of 4 h and a TIME [8] of 4 h.
Cc1ncsc1-c1ccc(CNC(=O)[C@@H]2C[C@@H](O)CN2C(=O)[C@@H](NC(=O)COCCCOCCCCOc2ccc(N3C(=S)N(c4ccc(C#N)c(Cl)c4)C(=O)C3(C)C)cc2)C(C)(C)C)cc1 showed an Emax [1] of over 71%, a DC50 [2] of at most 50 µM and an Emax [3] of over 71%. It also gave a DC50 [4] of at most 50 µM, an Activity [5] of 50% and an Activity [6] of 50%. It also gave a TIME [7] of 4 h and a TIME [8] of 4 h.
Cc1ncsc1-c1ccc([C@H](C)NC(=O)[C@@H]2C[C@@H](O)CN2C(=O)[C@@H](NC(=O)COCCCOCCCCCOc2c(F)cc(N3C(=S)N(c4ccc(C#N)c(C(F)(F)F)c4)C(=O)C3(C)C)cc2F)C(C)(C)C)cc1 was tested, and the Emax [1] was over 71%, the DC50 [2] was at most 50 µM and the Emax [3] was under 70%. The DC50 [4] was at most 50 µM, the Activity [5] was 50% and the Activity [6] was 50%. It also gave a TIME [7] of 4 h and a TIME [8] of 4 h.
Cc1ncsc1-c1ccc([C@H](C)NC(=O)[C@@H]2C[C@@H](O)CN2C(=O)[C@@H](NC(=O)COCCCOCCCCCOc2ccc(N3C(=S)N(c4ccc(C#N)c(C(F)(F)F)c4)C(=O)C3(C)C)cc2F)C(C)(C)C)cc1 showed an Emax [1] of over 71%, a DC50 [2] of at most 50 µM and an Emax [3] of under 70%. The DC50 [4] was at most 50 µM, the Activity [5] was 50% and the Activity [6] was 50%. The TIME [7] was 4 h and the TIME [8] was 4 h.
Compound Cc1ncsc1-c1ccc(CNC(=O)[C@@H]2C[C@@H](O)CN2C(=O)[C@@H](NC(=O)COCCCOCCCCCOc2ccc(N3C(=S)N(c4ccc(C#N)c(C(F)(F)F)c4)C(=O)C3(C)C)cc2)C(C)(C)C)cc1 has an Emax [1] of over 71%, a DC50 [2] of at most 50 µM and an Emax [3] of under 70%. The DC50 [4] was at most 50 µM, the Activity [5] was 50% and the Activity [6] was 50%. It also gave a TIME [7] of 4 h and a TIME [8] of 4 h.
For Cc1ncsc1-c1ccc(CNC(=O)[C@@H]2C[C@@H](O)CN2C(=O)[C@@H](NC(=O)COCCCOCCCCOc2ccc(N3C(=S)N(c4cnc(C#N)c(C(F)(F)F)c4)C(=O)C3(C)C)cc2)C(C)(C)C)cc1, the Emax [1] was over 71%, the DC50 [2] was at most 50 µM and the Emax [3] was over 71%. It also gave a DC50 [4] of at most 50 µM, an Activity [5] of 50% and an Activity [6] of 50%. The TIME [7] was 4 h and the TIME [8] was 4 h.
Cc1ncsc1-c1ccc(CNC(=O)[C@@H]2C[C@@H](O)CN2C(=O)[C@@H](NC(=O)COCCCOCCCCOc2ccc(N3C(=S)N(c4ccc(C#N)c(C(F)(F)F)c4)C(=O)C3(C)C)cc2F)C(C)(C)C)cc1 showed an Emax [1] of over 71%, a DC50 [2] of at most 50 µM and an Emax [3] of over 71%. The DC50 [4] was at most 50 µM, the Activity [5] was 50% and the Activity [6] was 50%. For the same compound, the TIME [7] was 4 h and the TIME [8] was 4 h.
